What was measured:
[1] = target: T1, Inhibitor of nuclear factor kappa-B kinase subunit epsilon (Homo sapiens) (UniProt Q14164); test: Selectivity interaction (KinomeScan (DiscoverX)) EUB0001079a IKBKE; conditions: at 1 µM
T1 sequence (whole entry): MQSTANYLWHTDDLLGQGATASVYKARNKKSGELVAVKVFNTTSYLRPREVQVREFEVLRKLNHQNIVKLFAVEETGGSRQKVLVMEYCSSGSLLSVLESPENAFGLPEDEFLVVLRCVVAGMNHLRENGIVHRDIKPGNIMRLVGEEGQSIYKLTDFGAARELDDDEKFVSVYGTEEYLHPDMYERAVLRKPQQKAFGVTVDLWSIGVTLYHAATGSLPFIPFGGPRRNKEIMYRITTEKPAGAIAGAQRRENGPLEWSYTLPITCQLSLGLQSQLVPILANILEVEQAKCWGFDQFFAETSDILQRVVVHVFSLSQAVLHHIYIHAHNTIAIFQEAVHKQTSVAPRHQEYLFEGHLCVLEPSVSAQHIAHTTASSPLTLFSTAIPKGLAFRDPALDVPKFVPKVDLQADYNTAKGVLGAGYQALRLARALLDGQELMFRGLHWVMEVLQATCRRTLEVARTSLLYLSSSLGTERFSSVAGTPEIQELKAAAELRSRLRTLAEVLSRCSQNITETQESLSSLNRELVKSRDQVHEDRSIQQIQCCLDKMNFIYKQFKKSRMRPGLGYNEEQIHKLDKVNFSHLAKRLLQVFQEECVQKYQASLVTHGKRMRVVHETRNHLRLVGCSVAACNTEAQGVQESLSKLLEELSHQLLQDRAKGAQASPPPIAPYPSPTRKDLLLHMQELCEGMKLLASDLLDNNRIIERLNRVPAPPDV

[2] = target: T2, Mitogen-activated protein kinase kinase kinase 19 (Homo sapiens) (UniProt Q56UN5); test: Selectivity interaction (KinomeScan (DiscoverX)) EUB0001079a MAP3K19; conditions: at 1 µM
T2 sequence (whole entry): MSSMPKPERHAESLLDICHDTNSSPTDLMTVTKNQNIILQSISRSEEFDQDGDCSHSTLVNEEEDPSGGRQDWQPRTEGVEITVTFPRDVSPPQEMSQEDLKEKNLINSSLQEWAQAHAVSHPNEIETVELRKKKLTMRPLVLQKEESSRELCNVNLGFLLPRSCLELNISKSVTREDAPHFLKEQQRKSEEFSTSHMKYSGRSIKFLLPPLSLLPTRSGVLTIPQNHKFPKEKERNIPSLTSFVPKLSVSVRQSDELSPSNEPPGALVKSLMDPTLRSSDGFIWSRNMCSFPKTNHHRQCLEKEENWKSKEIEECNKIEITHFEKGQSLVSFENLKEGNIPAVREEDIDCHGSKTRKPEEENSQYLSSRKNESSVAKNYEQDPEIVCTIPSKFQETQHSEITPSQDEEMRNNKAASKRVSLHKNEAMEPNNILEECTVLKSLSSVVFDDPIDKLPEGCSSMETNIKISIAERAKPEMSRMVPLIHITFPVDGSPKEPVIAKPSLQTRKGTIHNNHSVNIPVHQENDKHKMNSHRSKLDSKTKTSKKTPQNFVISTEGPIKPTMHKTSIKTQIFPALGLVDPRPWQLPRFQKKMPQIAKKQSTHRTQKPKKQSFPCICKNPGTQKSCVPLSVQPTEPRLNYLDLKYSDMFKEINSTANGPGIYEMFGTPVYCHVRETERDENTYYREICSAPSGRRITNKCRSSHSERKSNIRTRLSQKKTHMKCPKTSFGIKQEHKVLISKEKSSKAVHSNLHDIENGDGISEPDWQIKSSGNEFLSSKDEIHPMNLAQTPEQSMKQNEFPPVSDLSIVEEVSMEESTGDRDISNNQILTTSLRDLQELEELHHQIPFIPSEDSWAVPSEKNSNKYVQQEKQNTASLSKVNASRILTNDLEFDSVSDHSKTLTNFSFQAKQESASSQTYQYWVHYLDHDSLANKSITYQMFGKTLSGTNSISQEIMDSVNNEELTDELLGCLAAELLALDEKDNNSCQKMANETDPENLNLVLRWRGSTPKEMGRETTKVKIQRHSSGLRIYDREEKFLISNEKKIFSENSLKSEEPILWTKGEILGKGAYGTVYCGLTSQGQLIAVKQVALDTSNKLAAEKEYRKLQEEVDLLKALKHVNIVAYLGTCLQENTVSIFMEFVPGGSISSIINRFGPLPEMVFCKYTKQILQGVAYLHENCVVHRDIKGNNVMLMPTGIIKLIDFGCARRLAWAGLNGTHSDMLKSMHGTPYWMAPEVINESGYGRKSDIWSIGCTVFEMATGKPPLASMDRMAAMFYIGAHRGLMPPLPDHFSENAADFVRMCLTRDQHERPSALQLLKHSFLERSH

[3] = target: T3, Cyclin-dependent kinase 11A (Homo sapiens) (UniProt Q9UQ88); test: Selectivity interaction (KinomeScan (DiscoverX)) EUB0001049a CDK11A; conditions: at 1 µM
T3 sequence (whole entry): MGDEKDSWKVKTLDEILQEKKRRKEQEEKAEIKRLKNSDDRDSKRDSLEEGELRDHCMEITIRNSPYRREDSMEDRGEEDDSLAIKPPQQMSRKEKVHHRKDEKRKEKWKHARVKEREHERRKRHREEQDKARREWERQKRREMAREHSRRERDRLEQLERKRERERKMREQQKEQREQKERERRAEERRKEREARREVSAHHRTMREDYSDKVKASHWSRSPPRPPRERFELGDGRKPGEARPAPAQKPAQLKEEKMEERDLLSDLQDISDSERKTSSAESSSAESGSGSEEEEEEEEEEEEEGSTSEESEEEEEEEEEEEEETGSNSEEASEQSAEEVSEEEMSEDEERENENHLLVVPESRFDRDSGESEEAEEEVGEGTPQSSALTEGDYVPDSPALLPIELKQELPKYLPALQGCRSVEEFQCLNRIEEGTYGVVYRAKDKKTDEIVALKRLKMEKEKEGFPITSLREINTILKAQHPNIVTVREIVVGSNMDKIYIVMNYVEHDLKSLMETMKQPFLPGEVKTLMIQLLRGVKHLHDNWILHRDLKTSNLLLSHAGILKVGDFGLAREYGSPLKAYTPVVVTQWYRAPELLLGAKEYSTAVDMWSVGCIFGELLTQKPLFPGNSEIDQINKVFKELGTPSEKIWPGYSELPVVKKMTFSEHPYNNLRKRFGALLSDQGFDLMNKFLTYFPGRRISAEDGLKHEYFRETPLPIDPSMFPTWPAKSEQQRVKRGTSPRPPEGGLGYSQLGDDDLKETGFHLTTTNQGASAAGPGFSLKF

[4] = target: Ribosomal protein S6 kinase alpha-2 (Homo sapiens) (UniProt Q15349); test: Selectivity interaction (KinomeScan (DiscoverX)) EUB0000045b RPS6KA2
Chain of Ribosomal protein S6 kinase alpha-2 (Homo sapiens) (Q15349 whole entry): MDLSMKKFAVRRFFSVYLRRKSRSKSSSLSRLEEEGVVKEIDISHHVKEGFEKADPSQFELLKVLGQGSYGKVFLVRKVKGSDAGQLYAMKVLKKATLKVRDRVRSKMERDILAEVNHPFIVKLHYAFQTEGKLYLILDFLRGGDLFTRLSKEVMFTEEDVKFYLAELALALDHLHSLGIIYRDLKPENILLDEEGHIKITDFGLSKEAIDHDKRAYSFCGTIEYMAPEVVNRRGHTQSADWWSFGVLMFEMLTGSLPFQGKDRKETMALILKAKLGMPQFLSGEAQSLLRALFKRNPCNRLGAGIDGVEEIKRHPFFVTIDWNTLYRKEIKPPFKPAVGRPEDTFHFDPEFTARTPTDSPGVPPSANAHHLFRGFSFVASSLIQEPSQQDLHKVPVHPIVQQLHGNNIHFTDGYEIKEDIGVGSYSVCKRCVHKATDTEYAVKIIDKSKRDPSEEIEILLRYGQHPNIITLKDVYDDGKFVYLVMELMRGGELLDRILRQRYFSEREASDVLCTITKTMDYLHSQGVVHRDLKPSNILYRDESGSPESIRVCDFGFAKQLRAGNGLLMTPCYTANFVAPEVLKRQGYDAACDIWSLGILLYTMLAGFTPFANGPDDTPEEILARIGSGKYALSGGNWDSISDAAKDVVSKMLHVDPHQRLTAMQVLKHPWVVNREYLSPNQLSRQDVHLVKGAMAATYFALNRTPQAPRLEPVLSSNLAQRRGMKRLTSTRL

[5] = target: MAP/microtubule affinity-regulating kinase 3 (Homo sapiens) (UniProt P27448); test: Selectivity interaction (ActivX KiNativ screen (ex vivo kinase selectivity in human PBMCs)) EUB0001619a MARK3; assay type: cell-based; conditions: PBMC, at 1 µM
Chain of MAP/microtubule affinity-regulating kinase 3 (Homo sapiens) (P27448 whole entry, looked up): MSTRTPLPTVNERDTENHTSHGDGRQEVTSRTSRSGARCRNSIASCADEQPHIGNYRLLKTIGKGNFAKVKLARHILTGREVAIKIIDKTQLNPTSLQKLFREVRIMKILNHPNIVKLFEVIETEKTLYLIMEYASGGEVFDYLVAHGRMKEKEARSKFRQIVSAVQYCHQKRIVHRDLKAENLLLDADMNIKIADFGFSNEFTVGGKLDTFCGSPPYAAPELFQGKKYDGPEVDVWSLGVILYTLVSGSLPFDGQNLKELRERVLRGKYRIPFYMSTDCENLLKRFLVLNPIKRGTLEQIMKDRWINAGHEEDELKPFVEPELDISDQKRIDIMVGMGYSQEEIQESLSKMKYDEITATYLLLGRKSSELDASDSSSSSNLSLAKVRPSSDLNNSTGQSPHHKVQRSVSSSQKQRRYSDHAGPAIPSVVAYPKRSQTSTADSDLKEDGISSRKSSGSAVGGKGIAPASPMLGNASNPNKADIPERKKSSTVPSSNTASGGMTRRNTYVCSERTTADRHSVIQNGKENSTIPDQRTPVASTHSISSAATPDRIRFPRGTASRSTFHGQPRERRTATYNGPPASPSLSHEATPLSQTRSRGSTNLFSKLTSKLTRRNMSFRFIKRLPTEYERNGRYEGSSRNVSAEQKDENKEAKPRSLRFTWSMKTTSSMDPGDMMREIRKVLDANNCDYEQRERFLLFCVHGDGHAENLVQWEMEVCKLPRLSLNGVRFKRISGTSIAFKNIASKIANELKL

Nc1cnc(N2CCc3cc(S(=O)(=O)Nc4c(F)cc(Cl)cc4F)cc(N4CCCC4=O)c32)nc1 [TP-020n]
% of control [1]: 95% | % of control [2]: 100%

COc1cc(Nc2nc(C)cc(-c3cnn4nc(OC)ccc34)n2)cc(C(F)(F)F)c1
% of control [3]: 83%

C=CC(=O)Nc1cc(-n2c(=O)ccc3cnc4ccc(-c5ccc(NS(C)(=O)=O)cc5)cc4c32)ccc1C
% of control ([4]; at 1 µM): 100% | % of control ([4]; at 10 µM): 68%

N#Cc1cccc(-c2c[nH]c3ncnc(N4CCOCC4)c23)c1
% of inhibition [5]: 24%
